In brackets after ≈: the same amount, converted by molar mass. Each block holds one compound with its values, some of them ahead of it.
Assays:
L02 = experiment: Cytotoxicity against human L02 cells assessed as reduction in cell viability at 10 to 100 uM after 72 hrs by MTT assay; assay type: cell-based; conditions: l02, 72 h
Hep 3B2 = experiment: Cytotoxicity against human Hep3B cells assessed as reduction in cell viability at 10 to 100 uM after 72 hrs by MTT assay; assay type: cell-based; conditions: hep 3b2, 72 h
HEK293 = experiment: Cytotoxicity against HEK293 cells assessed as reduction in cell viability at 10 to 100 uM after 72 hrs by MTT assay; assay type: cell-based; conditions: human, hek293, 72 h
HUVEC = experiment: Cytotoxicity against HUVEC assessed as reduction in cell viability at 10 to 100 uM after 72 hrs by MTT assay; assay type: cell-based; conditions: human
[1] = Dissociation constant, pKa of the compound by potentiometric titration method; assay type: physicochemical
[2] = Lipophilicity, log D of the compound at pH 7.4 by potentiometric titration method; assay type: physicochemical; conditions: buffer
[3] = Intrinsic aqueous solubility of the compound at pH 7.4 by potentiometric titration method; assay type: physicochemical; conditions: buffer
[4] = Effective permeability of the compound at pH 7.4 by PAMPA; assay type: ADME; conditions: read-out: Peff
[5] = Tmax in Sprague-Dawley rat at 10 mg/kg, po by LC-MS/MS; assay type: ADME, organism-based; conditions: in vivo
[6] = Cmax in Sprague-Dawley rat at 10 mg/kg, po by LC-MS/MS; assay type: ADME, organism-based; parameters: dose 10 mg/kg, route oral; conditions: in vivo
Rattus norvegicus [7] = experiment: AUC (0 to t) in Sprague-Dawley rat at 10 mg/kg, po by LC-MS/MS; assay type: ADME, organism-based; conditions: in vivo
Rattus norvegicus [8] = experiment: AUC (0 to infinity) in Sprague-Dawley rat at 10 mg/kg, po by LC-MS/MS; assay type: ADME, organism-based; parameters: dose 10 mg/kg, time infinity, route oral; conditions: in vivo
[9] = Half life in Sprague-Dawley rat at 10 mg/kg, po by LC-MS/MS; assay type: ADME, organism-based; conditions: in vivo
[10] = Clearance in Sprague-Dawley rat at 10 mg/kg, po by LC-MS/MS; assay type: ADME, organism-based; conditions: in vivo
Rattus norvegicus [11] = experiment: Apparent volume of distribution in Sprague-Dawley rat at 10 mg/kg, po by LC-MS/MS; assay type: ADME, organism-based; conditions: in vivo
[12] = MRT (0 to infinity) in Sprague-Dawley rat at 10 mg/kg, po by LC-MS/MS; assay type: ADME, organism-based; conditions: in vivo
[13] = Oral bioavailability in Sprague-Dawley rat at 10 mg/kg by LC-MS/MS; assay type: ADME, organism-based; conditions: in vivo
Rattus norvegicus [14] = experiment: AUC (0 to t) in Sprague-Dawley rat at 1 mg/kg, iv by LC-MS/MS; assay type: ADME, organism-based; conditions: in vivo
Rattus norvegicus [15] = experiment: AUC (0 to infinity) in Sprague-Dawley rat at 1 mg/kg, iv by LC-MS/MS; assay type: ADME, organism-based; parameters: dose 1 mg/kg, route intravenous, time infinity; conditions: in vivo
[16] = Half life in Sprague-Dawley rat at 1 mg/kg, iv by LC-MS/MS; assay type: ADME, organism-based; conditions: in vivo
[17] = Clearance in Sprague-Dawley rat at 1 mg/kg, iv by LC-MS/MS; assay type: ADME, organism-based; conditions: in vivo
[18] = Apparent volume of distribution in Sprague-Dawley rat at 1 mg/kg, iv by LC-MS/MS; assay type: ADME, organism-based; conditions: in vivo, read-out: Vz
[19] = MRT (0 to infinity) in Sprague-Dawley rat at 1 mg/kg, iv by LC-MS/MS; assay type: ADME, organism-based; conditions: in vivo
Mus musculus [20] = experiment: Upregulation of plasma EPO level in C57BL/6 mouse assessed as EPO level at 50 mg/kg, po after 4 hrs by ELISA; assay type: functional
Mus musculus [21] = experiment: Antianemic activity in C57BL/6 mouse cisplatin-induced anemia model assessed as increase in hemoglobin level at 10 mg/kg, po administered every other day for 30 days relative to control; assay type: functional
Mus musculus [22] = experiment: Antianemic activity in C57BL/6 mouse cisplatin-induced anemia model assessed as increase in hemoglobin level at 25 mg/kg, po administered every other day for 30 days relative to control; assay type: functional
Mus musculus [23] = experiment: Acute toxicity in C57BL/6 mouse assessed as apparent signs of toxicity at 25 to 200 mg/kg, po administered every other day for 14 days; assay type: organism-based; conditions: in vivo, 336 h
Mus musculus [24] = experiment: Acute toxicity in C57BL/6 mouse assessed as behavioral abnormality at 25 to 200 mg/kg, po administered every other day for 14 days; assay type: organism-based; conditions: in vivo, 336 h
Mus musculus [25] = experiment: Acute toxicity in C57BL/6 mouse assessed as effect on growth at 25 to 200 mg/kg, po administered every other day for 14 days; assay type: organism-based; conditions: in vivo, 336 h
Mus musculus [26] = experiment: Acute toxicity in C57BL/6 mouse assessed as increase in body weight at 25 to 200 mg/kg, po administered every other day for 14 days measured during compound dosing; assay type: organism-based; conditions: in vivo, 336 h
Mus musculus [27] = experiment: Acute toxicity in C57BL/6 mouse assessed as effect on food intake at 25 to 200 mg/kg, po administered every other day for 14 days measured during compound dosing; assay type: organism-based; conditions: in vivo, 336 h
Mus musculus [28] = experiment: Acute toxicity in C57BL/6 mouse assessed as change in heart to body weight ratio at 25 to 200 mg/kg, po administered every other day for 14 days measured on day 14 post last dose; assay type: organism-based; conditions: in vivo, 336 h
Mus musculus [29] = experiment: Acute toxicity in C57BL/6 mouse assessed as change in liver to body weight ratio at 25 to 200 mg/kg, po administered every other day for 14 days measured on day 14 post last dose; assay type: organism-based; conditions: in vivo, 336 h
Mus musculus [30] = experiment: Acute toxicity in C57BL/6 mouse assessed as change in spleen to body weight ratio at 25 to 200 mg/kg, po administered every other day for 14 days measured on day 14 post last dose; assay type: organism-based; conditions: in vivo, 336 h
Mus musculus [31] = experiment: Acute toxicity in C57BL/6 mouse assessed as change in lungs to body weight ratio at 25 to 200 mg/kg, po administered every other day for 14 days measured on day 14 post last dose; assay type: organism-based; conditions: in vivo, 336 h
Mus musculus [32] = experiment: Acute toxicity in C57BL/6 mouse assessed as change in kidney to body weight ratio at 25 to 200 mg/kg, po administered every other day for 14 days measured on day 14 post last dose; assay type: organism-based; conditions: in vivo, 336 h
Mus musculus [33] = experiment: Cardiotoxicity in C57BL/6 mouse at 25 to 200 mg/kg, po administered every other day for 14 days measured on day 14 post last dose by H and E staining based assay; assay type: toxicity, organism-based; conditions: in vivo, 336 h
Mus musculus [34] = experiment: Hepatotoxicity in C57BL/6 mouse at 25 to 200 mg/kg, po administered every other day for 14 days measured on day 14 post last dose by H and E staining based assay; assay type: toxicity, organism-based; conditions: in vivo, 336 h
Mus musculus [35] = experiment: Toxicity in C57BL/6 mouse assessed as damage in spleen at 25 to 200 mg/kg, po administered every other day for 14 days measured on day 14 post last dose by H and E staining based assay; assay type: organism-based; conditions: in vivo, 336 h
Mus musculus [36] = experiment: Toxicity in C57BL/6 mouse assessed as damage in lungs at 25 to 200 mg/kg, po administered every other day for 14 days measured on day 14 post last dose by H and E staining based assay; assay type: organism-based; conditions: in vivo, 336 h
Mus musculus [37] = experiment: Nephrotoxicity in C57BL/6 mouse at 25 to 200 mg/kg, po administered every other day for 14 days measured on day 14 post last dose by H and E staining based assay; assay type: toxicity, organism-based; conditions: in vivo, 336 h
[38] = Therapeutic index, ratio of compound effect for toxicity in C57BL/6 mouse to compound effect for upregulation of plasma EPO level in C57BL/6 mouse; assay type: organism-based; conditions: read-out: TI
Egl nine homolog 1 [39] = molecular target: T1, Egl nine homolog 1 (Homo sapiens, UniProt Q9GZT9)
Egl nine homolog 1 [40] = molecular target: T1, Egl nine homolog 1; remark: listed apart in the source

T1 sequence (Q9GZT9 whole entry): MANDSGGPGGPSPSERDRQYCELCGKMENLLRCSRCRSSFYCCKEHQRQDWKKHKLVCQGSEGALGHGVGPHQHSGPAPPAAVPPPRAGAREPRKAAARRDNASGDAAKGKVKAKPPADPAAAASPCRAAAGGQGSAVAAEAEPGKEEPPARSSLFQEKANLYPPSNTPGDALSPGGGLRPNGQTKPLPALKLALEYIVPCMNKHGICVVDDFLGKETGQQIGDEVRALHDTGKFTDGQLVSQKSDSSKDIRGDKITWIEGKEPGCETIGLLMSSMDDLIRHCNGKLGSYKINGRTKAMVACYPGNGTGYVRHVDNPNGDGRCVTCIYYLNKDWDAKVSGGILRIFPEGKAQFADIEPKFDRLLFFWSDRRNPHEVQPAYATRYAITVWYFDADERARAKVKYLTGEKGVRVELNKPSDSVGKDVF

Compound: O=C(O)CNC(=O)c1ncc(-c2cn(CCCc3ccc(Cl)cc3)nn2)cc1O
Activity (L02): Non-Toxic
Activity (Hep 3B2): Non-Toxic
Activity (HEK293): Non-Toxic
Activity (HUVEC): Non-Toxic
pKa [1]: 3.21
logD [2]: 2.13
solubility [3]: 1180 µg/mL (≈ 2850 µM)
Papp [4]: 11.5 ×10⁻⁶ cm/s
Tmax [5]: 55 min
Cmax [6]: 1550 ng/mL
AUCt (Rattus norvegicus [7]): 4990 ng·h/mL
AUC (Rattus norvegicus [8]): 5440 ng·h/mL
half-life [9]: 184 min
CL/F [10]: 31.2 mL/min/kg
Vz (Rattus norvegicus [11]): 8634 mL/kg
MRT inf [12]: 3.28 h
bioavailability [13]: 54.1%
AUCt (Rattus norvegicus [14]): 923 ng·h/mL
AUC (Rattus norvegicus [15]): 933 ng·h/mL
half-life [16]: 90.4 min
clearance [17]: 19.4 mL/min/kg
Vd [18]: 2.31 L/kg
MRT inf [19]: 37.4 min
Activity (Mus musculus [20]): 1300 pg/mL
Activity (Mus musculus [21]): 61.9%
Activity (Mus musculus [22]): 96.7%
Activity (Mus musculus [23]): Non-Toxic
Activity (Mus musculus [24]): Non-Toxic
Activity (Mus musculus [25]): Non-Toxic
Activity (Mus musculus [26]): Toxic
Activity (Mus musculus [27]): Non-Toxic
Activity (Mus musculus [28]): Non-Toxic
Activity (Mus musculus [29]): Non-Toxic
Activity (Mus musculus [30]): Non-Toxic
Activity (Mus musculus [31]): Non-Toxic
Activity (Mus musculus [32]): Non-Toxic
Activity (Mus musculus [33]): Non-Toxic
Activity (Mus musculus [34]): Non-Toxic
Activity (Mus musculus [35]): Non-Toxic
Activity (Mus musculus [36]): Non-Toxic
Activity (Mus musculus [37]): Non-Toxic
selectivity ratio [38]: 10
IC50 (Egl nine homolog 1 [39]): 62.2 nM
IC50 (Egl nine homolog 1 [40]): 1310 nM

Compound: O=C(O)CNC(=O)c1ncc(-c2cn(CCc3ccc(Cl)cc3)nn2)cc1O
Activity (L02): Non-Toxic
Activity (Hep 3B2): Non-Toxic
Activity (HEK293): Non-Toxic
Activity (HUVEC): Non-Toxic

pKa [1]: 3.15
logD [2]: 3.77
solubility [3]: 255 µg/mL (≈ 725 µM)
Papp [4]: 12.7 ×10⁻⁶ cm/s
Compound: Cc1nc(C(=O)NCC(=O)O)c(O)c2ccc(Oc3ccccc3)cc12 [ROXADUSTAT]
Activity (L02): Non-Toxic
Activity (Hep 3B2): Non-Toxic
Activity (HEK293): Non-Toxic
Activity (HUVEC): Non-Toxic
Activity (Mus musculus [21]): 67.7%
Activity (Mus musculus [22]): 92.5%

— ChEMBL document CHEMBL4118236, “Click Chemistry-Based Discovery of [3-Hydroxy-5-(1 H-1,2,3-triazol-4-yl)picolinoyl]glycines as Orally Active Hypoxia-Inducing Factor Prolyl Hydroxylase Inhibitors with Favorable Safety Profiles for the Treatment of Anemia” (J Med Chem, 2018)
